In patent US9642780B2, “Detection and removal of carious dentin tissue” (RLS Global AB, priority 2011, dated 2017):
“Also recorded” adds a separate entry of the source. One block for each molecule: values may come before it.

Experiments:
[1] = tested on: carious dentin tissue of a pre molar tooth; test: Staining of a pre molar tooth cavity with Alexa 594 and removal with Carisolv and hand instrument
Procedure: Carious dentin tissue of a pre molar tooth was treated with Carisolv® to obtain a cavity and subsequently stained with an aqueous solution of the hydrazine derivative Alexa 594.
The concentration of the aqueous solution of the hydrazine derivative Alexa 594 was 15-50 mM. […] Carisolv® was added to the cavity and excavation took place with a hand instrument from Mediteam Dental AB to reach a carious free level. […] A dentist performed tactile control of this surface and confirmed that the surface was free of caries. […] The slightly stained surface was subjected to treatment with Carisolv® followed by excavation with a hand instrument. […] It was concluded that a hydrazine derivative such as Alexa 594 can be used in combination with a chemical means for carious dentin tissue such as Carisolv® for selective detection and removal of carious dentin tissue.

[2] = tested on: carious dentin tissue of a pre molar tooth; test: Staining of a pre molar tooth with Alexa 594 and removal with a dentist's drill; conditions: 15-50 mM aqueous solution, drilling and staining repeated several times
Procedure: Carious dentin tissue of a pre molar tooth stained with an aqueous solution of the hydrazine derivative Alexa 594 in a concentration of 15-50 mM was subjected to mechanical treatment by a dentist's drill until no staining could be visually detected. […] The stained surface was subjected to drilling until no staining could be visually detected. A dentist examined the surface visually and with a tactile instrument and concluded that the surface was free of caries. […] Again, drilling of the stained surface took place until no staining could be observed. […] Drilling and staining as described above in this example was repeated several times. […] It was concluded that selective detection and removal of carious dentin tissue using a hydrazine derivative in combination with a dentist's drill was not possible. […] This is in contrast to the successful selective detection and removal of carious dentin tissue using a hydrazine derivative in combination with a chemical means for treatment of carious dentin tissue as described in Example 5.

[3] = tested on: carious tissue in caries infected tooth slices; test: Staining of caries infected tooth slices with colours, then washing with MQ water, NaCl and NaOH; conditions: for staining of the tooth slice after NaCl and NaOH (Day 4): after NaCl 1 M and NaOH 0.5 M over night, visible light, UV or fluorescence microscopy; for kind of binding to carious tissue in infected teeth (conclusion): concluded from staining after NaCl and NaOH washes
Procedure: This experiment aimed to see if the added colours SEEK, Acid red 1, Lucifer Yellow, a combination of Lucifer Yellow and Acid red 1, or 5-(2-2-hydrazinyl-2-oxoethylthio)acetamido)-2-(3-hydroxy-6-oxo-6H-xanthen-9-yl)benzoic acid, Alexa Fluor® 594 and Alexa 350 bind to the surface of caries or not, after excavation down to a clinically caries free denoted surface. Experiments were performed during 4 days.
Whole caries infected tooth was added to an ortho acryl gel, which after hardening was used as a holder prior to sawing (saw of brand Zaw Micro Tone, German). Slices, having a thickness of 150 μm, were left over night in each colour to be tested (Day one). On the second day, the colours were washed out by rinsing the slices with MQ water and the teeth sections were photographed under either a microscope (6.7×; visible light), in UV (no microscope) or under a fluorescence microscope (100×). Thereafter, an aqueous salt solution (NaCl, 1 M) was added to the slices and incubated over night. On the third day the slices were washed with MQ water and thereafter the same detection procedures were used as described above. Finally the tooth slices were exposed to an aqueous solution of NaOH (0.5 M) over night. The washing and detection path were then repeated as described previously (Day 4).

carious dentin tissue [4] = test: Rinsing of carious dentin tissue labelled with a dye
healthy dentin tissue [5] = test: FTIR of healthy dentin tissue treated with Lucifer Yellow; set-up: species or system human; conditions: Lucifer Yellow 13 mM aqueous, overnight, no peak at 1740 cm−1 in any sample
Source text: (§1) Extracted permanent human teeth with no previous dental restorations were selected due to their severe carious tissue status and analysed with FTIR within one week after extraction. The outermost part of the carious dental lesions was removed. The remaining dental carious tissue was divided into two layers; one outer layer with discoloured, soft and infected dental carious tissue and one inner layer that was excavated down to the observed uncoloured hard surface of the remaining healthy dentin controlled by tactile procedures.
(§2) Healthy dentin tissue and carious dentin tissue from the innermost layer were collected. This healthy dentin tissue sample and carious dentin tissue sample were then each divided into three samples.
(§3) The healthy dentin tissue sample (26 mg) was divided and treated as follows. […] Fluorescence of bounded hydrazine derivate Lucifer Yellow was checked by a UV lamp. […] The third sample, hereinafter denominated sample S3, (7 mg) and the last procedure was treated with NaBH4 (0.5 M in ethanol) and washed with concentrated ethanol to reduce aldehydes and ketones before the addition of an aqueous solution of the hydrazine derivate Lucifer Yellow (13 mM), repeated rinsing with purified water before dried and analysed.
(§4) Thus, in total 6 samples (three from the healthy dentin tissue and three from the carious dentin tissue) were analysed with FTIR within one week after extraction. […]

carious dentin tissue [6] = test: FTIR of carious dentin tissue treated with Lucifer Yellow; set-up: species or system human
Source text: as §1, §2
as §3, with “analysed. […]” for “analysed.”
as §4

carious dentin tissue [7] = test: TOF-SIMS of carious dentin tissue treated with Lucifer Yellow
Procedure: FTIR-ATR and TOF-SIMS analyses were performed on a sample group consisting of carious tissue inner most layers selected and estimated with an exactness of a working dentist. Samples were pooled from 4-6 teeth of inner layer of carious tissue (37 mg). The pooled sample was divided into two subgroups where one was exposed to the hydrazine derivate Lucifer Yellow and further analysed with TOF-SIMS and the other only analysed with FTIR-ATR. An aqueous solution of the hydrazine derivate Lucifer Yellow (1.8 mM) was added to the inner layer carious tissue (19 mg) and after 1 hour exposure washed with an aqueous solution of NaOH (0.5 M) and purified water before dried over vacuum. Events prolonged under a couple of hours from extraction to excavation to the drying and milling of the substances. Both FTIR-ATR and TOF-SIMS followed. FTIR-ATR was performed as described in Example 3 above. […] Each sample was attached to double side tape and analysed with a TOF-SIMS instrument (TOF-SIMS IV, CAMECA/IONTOF, GmbH, Germany). Positive secondary ion mass spectra were recorded from different areas of the sample at a size of […] and separated in a mass analyser and next compared with known mass spectra from the Ion Spec application (IonTof, GmbH, Germany, ver. 4.1) linked with the TOF-SIMS instrument. Negative secondary ion mass spectra were also recorded but gave no further information. […]

healthy dentin tissue [8] = test: TOF-SIMS of healthy dentin tissue treated with Lucifer Yellow; conditions: positive mass spectra, treated similar to untreated

Molecule: 6-(2-carboxy-5-(hydrazinecarbonyl)phenyl)-1,2,2,10,10,11-hexamethyl-2,10-dihydro-1H-pyrano[3,2-g]diquinoline-11-ium-4,8-diyl)methanesulfonate [Alexa Fluor® 594]
sensitivity of caries detection compared with tactile control by a dentist [1]: better and more sensitive method for detecting carious dentin tissue than tactile control
staining of the cavity, first staining ([1]; 15-50 mM aqueous solution, cavity obtained with Carisolv): intense dark bluish colour
staining of the surface after second Carisolv treatment and excavation ([1]; final attempt to stain): no staining took place
staining of the surface after first Carisolv treatment and excavation ([1]; surface judged free of caries by dentist's tactile control): very slight staining at the center of the cavity
staining of the surface after drilling until no staining visible [2]: staining always took place after the drilling had been performed
staining of the tooth slice after NaCl and NaOH (Day 4) [3]: still contained colourants
staining of the tooth slice after NaCl and NaOH (Day 4) ([3]; listed as Alexa Fluor 594®): staining
kind of binding to carious tissue in infected teeth (conclusion) [3]: bind irreversibly

Molecule: Cc1c(CC(=O)NN)c(=O)oc2cc(N)c(S(=O)(=O)O)cc12 [Alexa 350]
staining of the tooth slice after NaCl and NaOH (Day 4) [3]: still contained colourants
kind of binding to carious tissue in infected teeth (conclusion) [3]: bind irreversibly

Molecule: NNC(=O)NN1C(=O)c2cc(S(=O)(=O)O)cc3c(N)c(S(=O)(=O)O)cc(c23)C1=O [Lucifer Yellow]
reaction with healthy dentin tissue (healthy dentin tissue [5]): no reaction takes place
reaction with carious dentin tissue (carious dentin tissue [6]; FTIR, Lucifer Yellow 13 mM aqueous, overnight, peak at 1740 cm−1 no longer present): reaction has taken place
selectivity of reaction, carious versus healthy dentin tissue (FTIR) (carious dentin tissue [6]; concluded from FTIR of samples S1-S6): selectively reacts with carious dentin tissue
bonding to carious dentin tissue (TOF-SIMS) (carious dentin tissue [7]; Lucifer Yellow 1.8 mM, 1 hour, washed with NaOH 0.5 M, positive spectra, repeated difference of 106 mass units): covalently bound to the carious tissue
selectivity of reaction, carious versus healthy dentin tissue (TOF-SIMS) (carious dentin tissue [7]; concluded from TOF-SIMS spectra): selectively reacts with carious dentin tissue
reaction with healthy dentin (TOF-SIMS) (healthy dentin tissue [8]): did not react with healthy dentin
staining of the tooth slice after NaCl and NaOH (Day 4) [3]: still contained colourants
kind of binding to carious tissue in infected teeth (conclusion) [3]: bind irreversibly

The next lines start with results.

kind of binding to carious tissue in infected teeth (conclusion) [3]: bind irreversibly
Molecule: NNC(=O)CSCC(=O)Nc1ccc(-c2c3ccc(=O)cc-3oc3cc(O)ccc23)c(C(=O)O)c1 [5-(2-2-hydrazinyl-2-oxoethylthio)acetamido)-2-(3-hydroxy-6-oxo-6H-xanthen-9-yl)benzoic acid]
staining of the tooth slice after NaCl and NaOH (Day 4) [3]: still contained colourants; also recorded: staining

kind of binding to carious tissue in infected teeth (conclusion) [3]: binds in a reversible way
Molecule: CC(=O)Nc1cc(S(=O)(=O)[O-])cc2cc(S(=O)(=O)[O-])c(/N=N/c3ccccc3)c(O)c12.[Na+].[Na+] [Acid red 1, reference compound]
effect of rinsing on dye bonded to carious dentin tissue (carious dentin tissue [4]): release of the dye bonded to the carious dentine tissue
staining of the tooth slice after incubation with 1 M NaCl ([3]; 150 μm slices left over night in colour, rinsed with MQ water, NaCl 1 M over night): only little staining remained
staining of the tooth slice after NaCl and NaOH (Day 4) [3]: no colouring of the slice treated with Acid red 1 could be detected using visible light and barely with microscope
